PubChem BioAssay AID493133 (Sanford-Burnham Center for Chemical Genomics, 2011)
Calls of active or inactive are those of the source. How the calls were made is not given here.

Molecular target: Alkaline phosphatase, tissue-nonspecific isozyme (Homo sapiens) (UniProt P05186)
Experiment: TNAP enzyme activity modulation, counter to mouse IAP activators, SAR follow-up, selectivity assay for mouse IAP activator project, biochemical (AID 493133)
Conditions: purified human TNAP enzyme, phosphatase activity counter-screen

Alkaline phosphatase, tissue-nonspecific isozyme (Homo sapiens), sequence (P05186 whole entry, looked up): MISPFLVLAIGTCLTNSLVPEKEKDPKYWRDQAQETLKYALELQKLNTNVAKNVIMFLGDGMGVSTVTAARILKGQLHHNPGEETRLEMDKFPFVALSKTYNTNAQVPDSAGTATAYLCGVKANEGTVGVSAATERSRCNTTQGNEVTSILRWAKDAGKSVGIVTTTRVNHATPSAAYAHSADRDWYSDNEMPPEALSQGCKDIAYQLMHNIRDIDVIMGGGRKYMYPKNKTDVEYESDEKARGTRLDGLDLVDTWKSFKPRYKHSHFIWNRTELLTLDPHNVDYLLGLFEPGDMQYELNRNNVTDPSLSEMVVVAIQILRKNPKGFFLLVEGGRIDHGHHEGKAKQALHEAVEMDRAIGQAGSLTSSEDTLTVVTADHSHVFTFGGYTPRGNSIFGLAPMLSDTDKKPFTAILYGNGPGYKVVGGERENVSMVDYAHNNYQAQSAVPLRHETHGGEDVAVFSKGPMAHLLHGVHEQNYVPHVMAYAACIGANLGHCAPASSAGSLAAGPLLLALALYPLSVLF

SMILES | EC50
Cc1ccc(NC(=O)CCNS(=O)(=O)c2ccc3[nH]c(=O)oc3c2)cc1N(C)C | > 100 µM (inactive)
CCOc1ccc2nc(NC(=O)CN(C)S(=O)(=O)c3ccc4[nH]c(=O)oc4c3)sc2c1 | > 100 µM (inactive)
N#Cc1cccc(NC(=O)CCNS(=O)(=O)c2ccc3[nH]c(=O)oc3c2)c1 | > 100 µM (inactive)
COc1cc(C(=O)NN=Cc2ccccn2)cc(OC)c1OC | 31 µM
CC(C(=O)Nc1ccc(C(=O)O)c(O)c1)N1C(=O)/C(=C\c2ccco2)SC1=S (centres undefined) | > 100 µM (inactive)
O=S(=O)(Nc1ncccn1)c1ccc(NC(=S)NCCC(c2ccccc2)c2ccccc2)cc1 | > 100 µM (inactive)
O=[N+]([O-])c1ccc(NC(=S)NCCC(c2ccccc2)c2ccccc2)cc1 | > 100 µM (inactive)
COc1ccc(NC(=O)CCNS(=O)(=O)c2ccc3[nH]c(=O)oc3c2)cc1Cl | > 100 µM (inactive)
O=C(CN1C(=O)/C(=C/c2ccco2)SC1=S)Nc1ccc(C(=O)O)cc1 | > 100 µM (inactive)
CCc1nnc(NC(=O)CSc2sc3c(O)cc(=O)[nH]c3c2C#N)s1 | > 100 µM (inactive)
CCOc1cccc(NC(=O)CSc2sc3c(O)cc(=O)[nH]c3c2C#N)c1 | > 100 µM (inactive)
CCOc1ccccc1CNC(=O)CCNS(=O)(=O)c1ccc2[nH]c(=O)oc2c1 | > 100 µM (inactive)
O=C(CN1C(=O)/C(=C/c2ccco2)SC1=S)Nc1cccc(C(=O)O)c1 | > 100 µM (inactive)
COc1ccccc1CNC(=O)CCNS(=O)(=O)c1ccc2[nH]c(=O)oc2c1 | > 100 µM (inactive)
COc1ccc(NC(=S)NCCC(c2ccccc2)c2ccccc2)cc1 | 44.8 µM
CCCSc1nnc(NC(=O)CSc2sc3c(O)cc(=O)[nH]c3c2C#N)s1 | > 100 µM (inactive)
CC(C(=O)Nc1ccccc1C(=O)O)N1C(=O)/C(=C\c2ccco2)SC1=S (centres undefined) | > 100 µM (inactive)
CN1CCC(=NNC(=O)c2cc(O)c(O)c(O)c2)CC1 | > 100 µM (inactive)
O=C(NN=Cc1cccnc1)c1cc(O)c(O)c(O)c1 | > 100 µM (inactive)
O=C(CCN1C(=O)/C(=C/c2ccco2)SC1=S)Nc1ccc(O)cc1C(=O)O | > 100 µM (inactive)
CC(C(=O)NCCc1ccc(O)cc1)N1C(=O)/C(=C/c2ccco2)SC1=S (centres undefined) | > 100 µM (inactive)
O=C(CCN1C(=O)/C(=C/c2ccco2)SC1=S)Nc1ccc(C(=O)O)c(O)c1 | > 100 µM (inactive)
COc1ccc(NC(=O)CSc2sc3c(O)cc(=O)[nH]c3c2C#N)c(OC)c1 | > 100 µM (inactive)
O=C(CN1C(=O)/C(=C\c2ccco2)SC1=S)Nc1cccc(C(=O)O)c1 | > 100 µM (inactive)
